From patent US11267823B2, “Substituted 1,2,3,3a,4,5,7,9,13,13a-decahydropyrido[1′,2′:4,5]pyrazino[1,2-a]pyrrolo[1,2-c]pyrimidines having HIV integrase inhibitory activity” (Shionogi & Co., Ltd., priority 2005, dated 2022)
Where a name gives a salt, the structure may show the parent alone.

test system: VSV-g pseudotyped HIV vector that expresses luciferase (PHIV); experiment: microbe, parasite or virus in culture; type: cell-based; conditions: Human immunodeficiency virus 1, HEK-293T, 48 h, read-out: PHIV IC50

| Compound | IC50 |
| --- | --- |
| O=C(NCc1ccc(F)cc1F)c1cn2c(c(O)c1=O)C(=O)N1[C@@H](C2)OC[C@@H]2CCCC[C@@H]21 (racemic) [Example Z-35, racemic-(4aR,6aR,14aS)—N-[(2,4-Difluorophenyl)methyl]-12-hydroxy-11,13-dioxo-1,3,4,4a,5,6a,7,11,13,14a-decahydro-2H-pyrido[1′,2′:4,5]pyrazino[1,2-a][3,1]benzoxazine-10-carboxamide] | < 10 nM |
| O=C(NCc1ccc(F)cc1)c1cn2c(c(O)c1=O)C(=O)N1[C@@H](C2)OC[C@@H]2CCCC[C@@H]21 (racemic) [Example Z-36, racemic-(4R,6aR,14aS)—N-[(4-Fluorophenyl)methyl]-12-hydroxy-11,13-d oxo-1,3,4,4a,5,6a,7,11,13,14a-decahydro-2H-pyrido[1′,2′:4,5]pyrazino[1,2-a][3,1]benzoxazine-10-carboxamide] | < 10 nM |
| O=C(NCc1ccc(F)cc1F)c1cn2c(c(O)c1=O)C(=O)N1[C@@H](C2)OC[C@@H]2C[C@@H](c3ccccc3)CC[C@@H]21 (racemic) [Example Z-37, racemic-(3S,4aR,6aR,14aS)—N-[(2,4-Difluorophenyl)methyl]-12-hydroxy-11,13-dioxo-3-phenyl-1,3,4,4a,5,6a,7,11,13,14a-decahydro-2H-pyrido[1′,2′:4,5]pyrazino[1,2-a][3,1]benzoxazine-10-carboxamide] | < 10 nM |
| CC(C)CN1C[C@@H]2CCCC[C@@H]2N2C(=O)c3c(O)c(=O)c(C(=O)NCc4ccc(F)cc4F)cn3C[C@@H]12 (racemic) [Example Z-38, Sodium racemic-(4aS,6aS,14aS)-10-({[(2,4-difluorophenyl)methyl]amino}carbonyl)-6-(2-methylpropyl)-11,13-dioxo-1,2,3,4,4a,5,6,6a,7,11,13,14a-dodecahydropyrido[1′,2′:4,5]pyrazino[1,2-a]quinazolin-12-olate] | 10 to 100 nM |
| CC(C)CN1C[C@@H]2CCC[C@@H]2N2C(=O)c3c(O)c(=O)c(C(=O)NCc4ccc(F)cc4F)cn3C[C@@H]12 (racemic) [Example Z-49, racemic-(3aS,5aS,13aS)—N-[(2,4-Difluorophenyl)methyl]-11-hydroxy-5-(2-methylpropyl)-10,12-dioxo-2,3,3a,4,5,5a,6,10,12,13a-decahydro-1H-cyclopenta[e]pyrido[1′,2′:4,5]pyrazino[1,2-a]pyrimidine-9-carboxamide] | < 10 nM |
| O=C(NCc1ccc(F)cc1F)c1cn2c(c(O)c1=O)C(=O)N1[C@H]3CCCC[C@H]3CN(CCN3CCOCC3)[C@@H]1C2 (racemic) [Example Z-51, racemic-(4aS,6aS,14aS)—N-[(2,4-Difluorophenyl)methyl]-12-hydroxy-6-[2-(4-morpholinyl)ethyl]-11,13-dioxo-1,2,3,4,4a,5,6,6a,7,11,13,14a-dodecahydropyrido-[1′,2′:4,5]pyrazino[1,2-a]quinazoline-10-carboxamide] | < 10 nM |
| O=C(NCc1ccc(F)cc1F)c1cn2c(c(O)c1=O)C(=O)N1[C@@H](C2)OC[C@@H]2CCC[C@@H]21 (racemic) [Example Z-52, racemic-(3aR,5aR,13aS)—N-[(2,4-Difluorophenyl)methyl]-11-hydroxy-10,12-dioxo-1,2,3,3a,4,5a,6,10,12,13a-decahydrocyclopenta[d]pyrido[1′,2′:4,5]pyrazino[2,1-b][1,3]oxazine-9-carboxamide] | < 10 nM |
| CN1C[C@@H]2CCCC[C@@H]2N2C(=O)c3c(O)c(=O)c(C(=O)NCc4ccc(F)cc4F)cn3C[C@@H]12 (racemic) [Example Z-53, racemic-(4aS,6aS,14aS)—N-[(2,4-Difluorophenyl)methyl]-12-hydroxy-6-methyl-11,13-dioxo-1,2,3,4,4a,5,6,6a,7,11,13,14a-dodecahydropyrido[1′,2′:4,5]pyrazino[1,2-a]quinazoline-10-carboxamide] | < 10 nM |
| COCCN1C[C@@H]2CCCC[C@@H]2N2C(=O)c3c(O)c(=O)c(C(=O)NCc4ccc(F)cc4F)cn3C[C@@H]12 (racemic) [Example Z-54, racemic-(4aS,6aS,14aS)—N-[(2,4-Difluorophenyl)methyl]-12-hydroxy-6-[2-(methyloxy)ethyl]11,13-dioxo-1,2,3,4,4a,5,6,6a,7,11,13,14a-dodecahydropyrido[1′,2′:4,5]pyrazino[1,2-a]quinazoline-10-carboxamide] | < 10 nM |
| CC(=O)NCCN1C[C@@H]2CCCC[C@@H]2N2C(=O)c3c(O)c(=O)c(C(=O)NCc4ccc(F)cc4F)cn3C[C@@H]12 (racemic) [Example Z-55] | 10 to 100 nM |
| C[C@@H]1CO[C@H]2Cn3cc(C(=O)NCc4ccc(F)cc4F)c(=O)c(O)c3C(=O)N12 [Example Z-1, (3R,11aS)—N-[(2,4-Difluorophenyl)methyl]-6-hydroxy-3-methyl-5,7-dioxo-2,3,5,7,11,11a-hexahydro[1,3]oxazolo[3,2-a]pyrido[1,2-d]pyrazine-8-carboxamide sodium salt] | < 10 nM |
| O=C(NCc1ccc(F)cc1F)c1cn2c(c(O)c1=O)C(=O)N1C[C@@H]3CCCN3[C@H]1C2 [Example Z-2, (4aR,13aS)—N-[(2,4-Difluorophenyl)methyl]-10-hydroxy-9,11-dioxo-2,3,4a,5,9,11,13,13a-octahydro-1H-pyrido[1,2-a]pyrrolo[1′,2′:3,4]imidazo[1,2-d]pyrazine-8-carboxamide] | < 10 nM |
| O=C(NCc1ccc(F)cc1F)c1cn2c(c(O)c1=O)C(=O)N1CC[C@@H]3CCCN3[C@@H]1C2 [Example Z-3, (3aS,13aS)—N-[(2,4-Difluorophenyl)methyl]-8-hydroxy-7,9-dioxo-1,2,3,3a,4,5,7,9,13,13a-decahydropyrido-[1′,2′:4,5]pyrazino[1,2-a]pyrrolo[1,2-c]pyrimidine-10-carboxamide] | < 10 nM |
| O=C(NCc1ccc(F)cc1F)c1cn2c(c(O)c1=O)C(=O)N1C[C@H]3CCCN3[C@@H]1C2 [Example Z-4, (4aS,13aR)—N-[(2,4-Difluorophenyl)methyl]-10-hydroxy-9,11-dioxo-2,3,4a,5,9,11,13,13a-octahydro-1H-pyrido[1,2-a]pyrrolo[1′,2′:3,4]imidazo[1,2-d]pyrazine-8-carboxamide sodium salt] | < 10 nM |
| O=C(NCc1ccc(F)cc1)c1cn2c(c(O)c1=O)C(=O)N1C[C@H]3CCCN3[C@@H]1C2 [Example Z-5, (4aS,13aR)—N-[(4-Fluorophenyl)methyl]-10-hydroxy-9,11-dioxo-2,3,4a,5,9,11,13,13a-octahydro-1H-pyrido[1,2-a]pyrrolo[1′,2′:3,4]imidazo[1,2-d]pyrazine-8-carboxamide] | < 10 nM |
| O=C(NCc1ccc(F)cc1F)c1cn2c(c(O)c1=O)C(=O)N1[C@@H](Cc3ccccc3)CO[C@@H]1C2 [Example Z-6, (3S,11aR)—N-[(2,4-Difluorophenyl)methyl]-6-hydroxy-5,7-dioxo-3-(phenylmethyl)-2,3,5,7,11,11a-hexahydro[1,3]oxazolo[3,2-a]pyrido[1,2-d]pyrazine-8-carboxamide] | < 10 nM |
| O=C(NCc1ccc(F)cc1)c1cn2c(c(O)c1=O)C(=O)N1CC[C@@H]3CCCN3[C@@H]1C2 [Example Z-7, (3aS,13aS)—N-[(4-Fluorophenyl)methyl]-8-hydroxy-7,9-dioxo-1,2,3,3a,4,5,7,9,13,13a-decahydropyrido[1′,2′:4,5]pyrazino[1,2-a]pyrrolo[1,2-c]pyrimidine-10-carboxamide] | < 10 nM |
| CC[C@H](C)[C@H]1CO[C@@H]2Cn3cc(C(=O)NCc4ccc(F)cc4F)c(=O)c(O)c3C(=O)N12 [Example Z-8, (3S,11aR)—N-[(2,4-Difluorophenyl)methyl]-6-hydroxy-3-[(1S)-1-methylpropyl]-5,7-dioxo-2,3,5,7,11,11a-hexahydro[1,3]oxazolo[3,2-a]pyrido[1,2-d]pyrazine-8-carboxamide sodium salt] | 10 to 100 nM |
| C[C@H]1CO[C@@H]2Cn3cc(C(=O)NCc4ccc(F)cc4F)c(=O)c(O)c3C(=O)N12 [Example Z-9, (3S,11aR)—N-[(2,4-Difluorophenyl)methyl]-6-hydroxy-3-methyl-5,7-dioxo-2,3,5,7,11,11a-hexahydro[1,3]oxazolo[3,2-a]pyrido[1,2-d]pyrazine-8-carboxamide sodium salt] | < 10 nM |
| C[C@H]1CO[C@@H]2Cn3cc(C(=O)NCc4ccc(F)cc4)c(=O)c(O)c3C(=O)N12 [Example Z-10, (3S,11aR)—N-[(4-fluorophenyl)methyl]-6-hydroxy-3-methyl-5,7-dioxo-2,3,5,7,11,11a-hexahydro[1,3]oxazolo[3,2-a]pyrido[1,2-d]pyrazine-8-carboxamide] | < 10 nM |
| CC(C)(C)[C@H]1CO[C@@H]2Cn3cc(C(=O)NCc4ccc(F)cc4F)c(=O)c(O)c3C(=O)N21 [Example Z-11, (3S,11aR)—N-[(2,4-Difluorophenyl)methyl]-3-(1,1-dimethylethyl)-6-hydroxy-5,7-dioxo-2,3,5,7,11,11a-hexahydro[1,3]oxazolo[3,2-a]pyrido[1,2-d]pyrazine-8-carboxamide] | < 10 nM |
| CC(C)(C)[C@H]1CO[C@@H]2Cn3cc(C(=O)NCc4ccc(F)cc4)c(=O)c(O)c3C(=O)N21 [Example Z-12, (3S,11aR)-3-(1,1-Dimethylethyl)-N-[(4-fluorophenyl)methyl]-6-hydroxy-5,7-dioxo-2,3,5,7,11,11a-hexahydro[1,3]oxazolo[3,2-a]pyrido[1,2-d]pyrazine-8-carboxamide] | < 10 nM |
| O=C(NCc1ccc(F)cc1F)c1cn2c(c(O)c1=O)C(=O)N1[C@@H](c3ccccc3)CO[C@@H]1C2 [Example Z-13, (3S,11aR)—N-[(2,4-Difluorophenyl)methyl]-6-hydroxy-5,7-dioxo-3-phenyl-2,3,5,7,11,11a-hexahydro[1,3]oxazolo[3,2-a]pyrido[1,2-d]pyrazine-8-carboxamide] | 10 to 100 nM |
| O=C(NCc1ccc(F)cc1F)c1cn2c(c(O)c1=O)C(=O)N1[C@@H](CO)CO[C@@H]1C2 [Example Z-14, (3S,11aR)—N-[(2,4-Difluorophenyl)methyl]-6-hydroxy-3-(hydroxymethyl)-5,7-dioxo-2,3,5,7,11,11a-hexahydro[1,3]oxazolo[3,2-a]pyrido[1,2-d]pyrazine-8-carboxamide] | 10 to 100 nM |
